Results published in PubChem BioAssay AID844 (SRMLSC, 2007).
Active and inactive are the calls of the source. How the calls were made is not given here.

Tested on: MRP1 cells, doxorubicin viability shift, 10 uM compound
Assay: doxorubicin EC50 increase in MRP-1 cells, dose response, cell-based, doxorubicin EC50 shift (AID 844)
Conditions: for EC50: measured here: doxorubicin EC50 with compound

SMILES	fold increase in Dox EC50	EC50
O=C1NC(=O)C2(COC(c3ccccc3Cl)OC2)S1 (stereo not given)	0.69 (inactive)	3.74 µM
COc1ccc(C(C)=O)cc1CSc1nnc(Nc2ccccc2C)s1	0.75 (inactive)	4.04 µM
O=C1CC(N2CCN(c3nc4ccccc4s3)CC2)C(=O)N1c1ccc(F)cc1 (stereo not given)	1.18 (inactive)	6.38 µM
COC(=O)CC1SC(=O)NC1=O (stereo not given)	0.9 (inactive)	4.84 µM
CC1CCc2c(C(=O)OCC(=O)Nc3cccc(S(=O)(=O)N4CCCCCC4)c3)csc2C1 (stereo not given)	1.05 (inactive)	5.68 µM
COCC(=O)Nc1nnc(COc2ccc(Cl)cc2)s1	1.44 (inactive)	7.75 µM
O=C1/C(=C\c2ccco2)SC(=S)N1c1ccc(O)cc1	0.34 (inactive)	1.84 µM
CN1/C(=C\C(=O)c2oc3ccccc3c2N)C(C)(C)c2ccccc21	0.7 (inactive)	3.77 µM
Cc1cccc(-n2ncc3c(N4CC(C)CC(C)C4)ncnc32)c1 (stereo not given)	0.6 (inactive)	3.25 µM
CC(C)CC(=O)n1sc(NC(=O)c2ccccc2)nc1=O	0.92 (inactive)	4.95 µM
COc1ccc(NC(=O)CC2C(=O)N(c3ccc(F)cc3)C(=S)N2NC(=O)c2ccccc2)cc1 (stereo not given)	0.79 (inactive)	4.29 µM
Cc1cccc(N2CCN(C(=O)c3cc4c(=O)n(C)c5ccccc5c4n3C)CC2)c1C	0.08 (inactive)	0.44 µM
COC(=O)C1=C(C)NC(C)=C(C(=O)OC)C1c1ccccc1OCc1c(C)no[n+]1[O-]	0.98 (inactive)	5.32 µM
Cc1ccc(C)c(/C(O)=C2\C(=O)C(=O)N(CCCn3ccnc3)C2c2ccncc2)c1 (stereo not given)	1.17 (inactive)	6.31 µM
Cc1cc(C)c(S(C)(=O)=O)c(Sc2ccc(Cl)cc2)n1	0.81 (inactive)	4.38 µM
COc1ccc(-c2cc(C(=O)Nc3sc4c(c3C#N)CCCC4)c3ccccc3n2)cc1	1.18 (inactive)	6.37 µM
COc1cccc(/C=N\NC(=O)C2=NNC(=O)C2C)c1O (stereo not given)	1.2 (inactive)	6.47 µM
COc1ccccc1NC(=O)c1sc2nc(-c3ccco3)ccc2c1N	0.85 (inactive)	4.61 µM
CC(C)Oc1ccc(-c2nn(-c3ccccc3)cc2/C=c2\sc3ncnn3c2=O)cc1	0.82 (inactive)	4.4 µM
O=C(Nc1ccc(C2CC2(Cl)Cl)cc1)c1ccccc1Br (stereo not given)	1.6	8.66 µM
Cc1nc2c(ccc3nc(NC(=O)C(c4ccccc4)c4ccccc4)sc32)s1	0.84 (inactive)	4.51 µM
COC(=O)C1C(=O)c2c([nH]c(C(=O)OC3CCCCC3)c2C)CC1C (stereo not given)	0.69 (inactive)	3.74 µM
Cc1cc(NC(=O)CSc2nc(-c3ccccc3)c(C#N)c(=O)[nH]2)no1	1.51	8.14 µM
CCCCCOc1ccc(CSc2ncn[nH]2)cc1	0.68 (inactive)	3.69 µM
O=C1[C@@H]2C(Cc3ccc(O)cc3)NC3(C(=O)Nc4ccc(F)cc43)[C@@H]2C(=O)N1c1ccc(F)cc1 (stereo not given in full)	1.39 (inactive)	7.52 µM

SMILES	fold increase in Dox EC50	EC50
Cc1ccc(Cl)cc1N1CCN(C(=O)c2cc3c(=O)n(C)c4ccccc4c3n2C)CC1	0.19 (inactive)	1 µM
Cc1cc(C(=O)OCC(=O)Nc2ccc(F)c(F)c2)c(C)o1	1.76	9.53 µM
O=C(CC1SC(=O)N(Cc2ccccc2)C1=O)Nc1nccs1 (stereo not given)	1.82	9.84 µM
NC(=O)C1(N2CCCCC2)CCN(C(=O)c2cccn3c(=O)c4cc(Cl)ccc4nc23)CC1	0.7 (inactive)	3.79 µM
O=C(/C=C/c1ccc([N+](=O)[O-])cc1)N1CCN(c2ccccc2F)CC1	0.56 (inactive)	3.05 µM
Cc1cccc(N2CCN(C(=O)Cc3ccc(Br)cc3)CC2)c1C	0.95 (inactive)	5.11 µM
Cc1cccc(OCc2nc(-c3nonc3N)no2)c1C	0.78 (inactive)	4.22 µM
O=C(Nc1ncc(Cc2ccccc2Cl)s1)c1ccc(-c2cccc([N+](=O)[O-])c2)o1	0.81 (inactive)	4.38 µM
CN(C)c1ccc(NC(=O)CN2C(=O)CN=C(c3ccccc3)c3cc(Cl)ccc32)cc1	1.29 (inactive)	6.99 µM
O=C(Nc1cccc(Cl)c1)c1c(O)c2c(n(Cc3ccccc3)c1=O)CCCC2	1.14 (inactive)	6.17 µM
Cc1cc(=O)oc2c1ccc1oc(/C(=N/O)c3ccccc3)c(C)c12	1.3 (inactive)	7.02 µM
O=C(CSc1ccccc1)Nc1nnc(COc2ccc(Cl)cc2)s1	0.43 (inactive)	2.34 µM
O=C(Cc1ccccc1F)Nc1cccc2cccnc12	1.68	9.04 µM
O=C(c1ccc(COc2ccc(Cl)cc2)o1)N1N=C(C(F)F)CC1(O)C(F)F (stereo not given)	1.44 (inactive)	7.77 µM
CCOC(=O)c1ccccc1NC(=O)C1COc2ccccc2O1 (stereo not given)	0.42 (inactive)	2.28 µM
CCCCc1nnc(NC(=O)CSc2nc(=O)cc(N)n2-c2cccc(C)c2)s1	1.31 (inactive)	7.08 µM
COc1cccc(/C=N/NC(=O)CNC(=O)c2ccc3c(c2)OCCO3)c1O	0.5 (inactive)	2.71 µM
CCN(CC)S(=O)(=O)c1cccc(NC(=O)CCSc2ccc(Cl)cc2)c1	0.89 (inactive)	4.81 µM
Cc1ccc(-c2noc(C3CCCN(S(=O)(=O)c4ccc5ccccc5c4)C3)n2)o1 (stereo not given)	1.58	8.55 µM
CCOC(=O)/C=C1\SCC(=O)N1CCOc1cccc(Br)c1	1.2 (inactive)	6.5 µM
CCc1nnc(NC(=O)C2CCCN2S(=O)(=O)c2ccc(F)cc2)s1 (stereo not given)	1.03 (inactive)	5.54 µM
O=C(CC(Nc1ccc(F)cc1)C(=O)OCC(=O)c1cccs1)c1ccccc1 (stereo not given)	0.69 (inactive)	3.73 µM
C/C(=N\NC(=O)c1cccc(S(=O)(=O)Nc2cccc(Cl)c2)c1)c1cccs1	0.65 (inactive)	3.49 µM
COc1ccc(-n2c(C)nc(=O)c(-c3ccccc3)c2C)cc1	0.83 (inactive)	4.47 µM
O=C1CC(N2CCC(O)(c3ccc(Br)cc3)CC2)C(=O)N1c1ccc(Cl)cc1 (stereo not given)	1.37 (inactive)	7.39 µM

SMILES	fold increase in Dox EC50	EC50
CC(/C=C1\SC(=S)N(CCCC(=O)Nc2ccc(C(=O)O)cc2)C1=O)=C\c1ccccc1	0.55 (inactive)	2.98 µM
O=C1c2ccccc2-c2nc3ccccc3n21	1.09 (inactive)	5.87 µM
COc1ccc(/C=C/C(=O)NCc2cnn(C)c2C)cc1COc1ccc(Br)cc1	0.68 (inactive)	3.7 µM
O=C1CSC(=NC(=O)c2ccccc2)N1	0.7 (inactive)	3.79 µM
COc1ccc(CNc2nc(NCc3ccc(OC)cc3)n(S(C)(=O)=O)n2)cc1	1.07 (inactive)	5.78 µM
O=C1N=C(c2ccccc2)S/C1=C\c1cccs1	1.2 (inactive)	6.5 µM
c1ccc(N2CCN(c3nc(-c4cccs4)nc4ccccc34)CC2)cc1	0.81 (inactive)	4.37 µM
CCc1nccn1C(=O)c1cnn2c(C(F)F)cc(-c3ccc(C)cc3)nc12	0.1 (inactive)	0.523 µM
O=C(N/N=C/c1ccccc1[N+](=O)[O-])c1ccc(COc2ccccc2-c2ccccc2)cc1	1 (inactive)	5.39 µM
Cc1[nH]c2ccccc2c1C(=O)C(=O)NCCC1=CCCCC1	0.98 (inactive)	5.3 µM
Cc1ccc(C2=CC(C)(c3ccc(C)cc3)Nc3nc(C(F)(F)F)nn32)cc1 (stereo not given)	0.94 (inactive)	5.1 µM
C[C@H](C(=O)C=[N+]=[N-])N1C(=O)c2ccccc2C1=O	0.56 (inactive)	3.04 µM
COc1cccc(-c2csc(NC(=O)C3CC3)n2)c1	0.84 (inactive)	4.55 µM
CCOC(=O)/C(=N\Nc1ccccc1Cl)N1CCN(Cc2ccccc2)CC1	0.63 (inactive)	3.43 µM
CCOC(=O)c1[nH]c2cc(OC)c(OC)cc2c1N	0.96 (inactive)	5.17 µM
CCCCc1ccc(-c2nc(-c3ccncc3)no2)cc1	0.76 (inactive)	4.09 µM
Nc1ccc(CC2SC(=O)NC2=O)cc1 (stereo not given)	1.24 (inactive)	6.72 µM
N#Cc1c(-c2ccccc2)nc(SCC(=O)N(c2ccccc2)c2ccccc2)[nH]c1=O	1.08 (inactive)	5.86 µM
CCCC(=O)NC(=S)Nc1ccc(C(C)=O)cc1	0.46 (inactive)	2.48 µM
N#CCSc1nc2cc(C(=O)N3CCC(C(N)=O)CC3)ccc2c2nc3ccccc3n12	0.86 (inactive)	4.62 µM
Cc1ccc(NC(=O)CSc2nnc(-c3cccs3)n2Cc2ccco2)cc1	0.78 (inactive)	4.24 µM
CC(O)(CS(=O)(=O)Cc1ccccc1)C(=O)Nc1ccc(C(F)(F)F)cc1 (stereo not given)	1.27 (inactive)	6.84 µM
COc1ccc(-c2cc3nc(C)cc(N4CC(C)CC(C)C4)n3n2)cc1 (stereo not given)	0.64 (inactive)	3.45 µM
O=C(CC1SC(=O)N(c2ccccc2)C1=O)Nc1ccccc1 (stereo not given)	1.19 (inactive)	6.42 µM
CC(CCc1ccccc1)NC(=O)CN1CCN(Cc2ccc(Cl)cc2)C1=O (stereo not given)	1.03 (inactive)	5.58 µM
